Results published in BindingDB's records for doi:10.1016/j.bioorg.2015.04.006 (Ataturk University, 2015).

What follows are compounds tested against Acetylcholinesterase (Homo sapiens, UniProt P22303) (assay: Acetylcholinesterase Inhibition Assay). Settings: pH 8.
Chain of Acetylcholinesterase (P22303 whole entry): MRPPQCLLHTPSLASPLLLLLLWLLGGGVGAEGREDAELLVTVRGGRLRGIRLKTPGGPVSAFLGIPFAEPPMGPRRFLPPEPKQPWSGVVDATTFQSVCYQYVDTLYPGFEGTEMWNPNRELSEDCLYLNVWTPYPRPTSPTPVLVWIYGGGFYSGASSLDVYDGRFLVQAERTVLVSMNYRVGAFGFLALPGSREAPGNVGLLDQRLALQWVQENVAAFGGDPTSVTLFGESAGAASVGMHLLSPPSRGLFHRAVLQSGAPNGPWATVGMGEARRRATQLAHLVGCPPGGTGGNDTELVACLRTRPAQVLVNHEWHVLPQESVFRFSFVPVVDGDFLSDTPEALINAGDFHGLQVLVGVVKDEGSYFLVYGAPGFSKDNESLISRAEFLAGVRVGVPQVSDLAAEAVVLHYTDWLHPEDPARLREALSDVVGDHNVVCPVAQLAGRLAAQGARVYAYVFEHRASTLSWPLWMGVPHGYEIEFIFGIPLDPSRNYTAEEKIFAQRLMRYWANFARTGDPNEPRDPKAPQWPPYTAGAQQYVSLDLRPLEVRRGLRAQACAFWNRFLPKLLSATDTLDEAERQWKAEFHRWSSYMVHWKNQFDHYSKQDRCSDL
Description: AChI and 5,5'-dithio-bis(2-nitro-benzoic)acid (DTNB) were used as substrate for this enzymatic reaction. […] Then 50 µL of DTNB (0.5 mM) was transferred. Then the reaction was initiated by the addition of 50 µL of AChI. The hydrolysis of AChI was recorded spectrophotometrically by the formation of yellow 5-thio-2-nitrobenzoate anion as the result of the reaction of DTNB with thiocholine at a wavelength of 412 nm.
O=C(c1ccc(O)c(O)c1)c1ccc(O)cc1Br [(2-bromo-4-hydroxyphenyl)(3,4-dihydroxyphenyl)methanone (20)] gave an IC50 of 4.71 nM and a Ki of 4.06 nM.
O=C(c1ccc(O)cc1Br)c1cccc(O)c1O [(2-Bromo-4-hydroxyphenyl)(2,3-dihydroxyphenyl)methanone (21)] showed an IC50 of 4.84 nM and a Ki of 3.75 nM.
O=C(c1ccc(O)cc1)c1cc(Br)c(O)cc1O [(5-Bromo-2,4-dihydroxyphenyl)(4-hydroxyphenyl)methanone (24)] gave an IC50 of 4.81 nM and a Ki of 5.72 nM.
COc1ccc(C(=O)c2cc(OC)c(Br)cc2OC)cc1 [(4-Bromo-2,5-dimethoxyphenyl)(4-methoxyphenyl)methanone (15)] gave an IC50 of 4.22 nM and a Ki of 3.77 nM.
Compound COc1ccc(C(=O)c2cc(Br)c(OC)cc2OC)cc1 [(5-bromo-2,4-dimethoxyphenyl)(4-methoxyphenyl)methanone (19)] has an IC50 of 4.05 nM and a Ki of 3.65 nM.
COc1ccc(OC)c(Br)c1 [2-bromo-1,4-dimethoxybenzene (14)] was tested, and the IC50 was 7.21 nM and the Ki was 4.25 nM.
COc1cc(C(=O)c2ccccc2)c(OC)cc1Br [(4-Bromo-2,5-dimethoxyphenyl)(phenyl)methanone (16)] gave an IC50 of 4.68 nM and a Ki of 5.28 nM.
Compound O=C(c1ccc(O)cc1)c1cc(O)c(Br)cc1O [(4-Bromo-2,5-dihydroxyphenyl)(4-hydroxyphenyl)methanone (22)] has an IC50 of 4.58 nM and a Ki of 2.78 nM.
In the case of COc1ccc(C(=O)c2ccc(OC)cc2OC)cc1 [(2,4-dimethoxyphenyl)(4-methoxyphenyl)methanone (18)], the IC50 is reported as 5.25 nM and the Ki is reported as 5.88 nM.
For COc1ccc(C(=O)c2ccc(OC)c(OC)c2)c(Br)c1 [(2-bromo-4-methoxyphenyl)(3,4-dimethoxyphenyl)methanone (10)], the IC50 was 4.41 nM and the Ki was 3.53 nM.
COc1ccc(C(=O)c2cccc(OC)c2OC)c(Br)c1 [(2-Bromo-4-methoxyphenyl)(2,3-dimethoxyphenyl)methanone (11)] was tested, and the IC50 was 4.2 nM and the Ki was 4.34 nM.
Compound O=C(c1ccccc1)c1cc(O)c(Br)cc1O [(4-Bromo-2,5-dihydroxyphenyl)(phenyl)methanone (23)] has an IC50 of 4.88 nM and a Ki of 3.24 nM.
